Measured values from patent EP0573360A1, “Pyrrolothienopyrazine compounds as 5-HT3 receptors antagonists” (ADIR ET COMPAGNIE, priority 1992, dated 1993).

Molecular target: T1, récepteurs 5-HT3 (Rattus norvegicus, UniProt P35563)
T1 construct: induite par l'injection intraveineuse d'agonistes 5-HT3 chez le rat anesthésié à l'uréthane; from tissue; host or cells: whole animal: Sprague-Dawley rat, vagal afferents
T1 sequence (P35563 24-483): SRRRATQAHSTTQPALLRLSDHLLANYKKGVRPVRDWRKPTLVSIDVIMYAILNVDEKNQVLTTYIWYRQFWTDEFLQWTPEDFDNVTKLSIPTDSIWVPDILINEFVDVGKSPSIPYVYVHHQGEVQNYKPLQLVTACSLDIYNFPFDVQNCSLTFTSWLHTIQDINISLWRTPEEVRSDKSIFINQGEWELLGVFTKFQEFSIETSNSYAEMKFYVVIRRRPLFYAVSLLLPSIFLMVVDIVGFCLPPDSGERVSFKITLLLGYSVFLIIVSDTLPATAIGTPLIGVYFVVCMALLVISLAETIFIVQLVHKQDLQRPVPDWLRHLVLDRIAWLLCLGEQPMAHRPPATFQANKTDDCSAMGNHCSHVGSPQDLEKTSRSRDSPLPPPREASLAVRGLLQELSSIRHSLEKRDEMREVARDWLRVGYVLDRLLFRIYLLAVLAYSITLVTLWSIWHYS
Assay: Bezold-Jarisch bradycardic reflex in the urethane-anaesthetised rat
Format: in vivo
Details: for duration of the transient fall of rythme cardiaque: 30 µg i.v.; for prevention of the agonist-induced fall of rythme cardiaque: prior i.v. administration, dose 1 µg/kg
Text: La bradycardie (réflexe de BEZOLD-JARISCH) est induite par l'injection intraveineuse d'agonistes 5-HT3 chez le rat anesthésié à l'uréthane. Cette réponse consiste en une bradycardie brutale mais transitoire induite par la stimulation des récepteurs 5-HT3 sur les afférences vagales. Ce modèle est donc tout à fait approprié pour révéler d'éventuels effet agonistes ou antagonistes de composés qui sont des ligands potentiels des récepteurs 5-HT3.
L'animal (rat mâle, adulte - souche Sprague-Dawley, 250-300 g) est tout d'abord anesthésié à l'uréthane (1,4 g/kg i.p.) puis trachéotomisé pour la mise en place d'une canule trachéale. Un cathéter (0,3 mm) est introduit dans l'aorte abdominale via l'artère fémorale pour l'enregistrement en continu de la pression artérielle et du rythme cardiaque. Les agents pharmacologiques sont injectés dans la veine saphène qui a été canulée à cet effet.

SMILES: Cc1[nH]c2ccc(O)cc2c1CCN [2-méthyl-5-tryptamine, 2-méthyl-5 hydroxytryptamine]
- duration of the transient fall of rythme cardiaque: 4-5 secondes

SMILES: Cc1nccn1CC1CCc2c(c3ccccc3n2C)C1=O (stereo not shown) [ondansetron]
- prevention of the agonist-induced fall of rythme cardiaque: complétement empêché

SMILES: NCCc1c[nH]c2ccc(O)cc12 [sérotonine]
- duration of the transient fall of rythme cardiaque: 4-5 secondes

SMILES: COc1cc(N)c(Cl)cc1C(=O)NC1CN2CCC1CC2 (stereo not shown) [zacopride]
- prevention of the agonist-induced fall of rythme cardiaque: complétement empêché
